Where a name gives a salt, the structure may show the parent alone.
Key:
[1] = system: Chinese hamster ovary cells (CHO-DHFR−); assay: Absorption test using cells (cell growth promotion / retardation); assay type: cell-based; details: 2-day culture; for Optimum cell growth concentration: Cell Counting Kit 8, absorbance 450 nm, concentration at which cell count is largest (about 5%) compared to without PQQ, tested 150 to 2.3 μg/mL; for Cell growth retarding concentration: concentration at which total cell count is decreased by about 10% compared to without PQQ
Experimental: PQQ has effects of promoting cell growth and of retarding cell growth at a higher concentration on cultured animal cells. Based on these effects, change in the cell absorption was tested.
Chinese hamster ovary cells (CHO-DHFR^−, Dainippon Sumitomo Pharma Co., Ltd.) were cultured in a medium (alpha-MEM+10% fetal bovine serum) containing 5% CO2 at 37° C. The cultured cells were added together with 100 μL of the medium to each well of the 96-well plate (IWAKI) so that the cell density per well is 6,000 cells/well, and culture was performed overnight. The culture solution was removed, and the medium having a predetermined test concentration was added thereto. After a 2-day culture, the medium was replaced, a Cell Counting Kit 8 (from DOJINDO LABORATORIES) was used to stain the cells for one hour, and measurement of absorbance was performed at 450 nm. The absorbance in this case is proportional to the cell number.
As the test samples, the crystalline calcium salts of PQQ in Examples 1 and 2 above, and the disodium salt of PQQ or the raw material in Test Example 1, were used for testing after dilution by the medium. The test was duplicated for each sample, and the results were averaged.
The concentration at which the cell count due to PQQ is largest (about 5%) compared to the case without PQQ is recorded as the optimum cell growth concentration. In addition, the concentration at which the total cell count is decreased by about 10% compared to the case without PQQ is recorded as the cell-growth retarding concentration.

[2] = Elution test: amount of PQQ dissolved from the calcium salt with or without a chelating substance; assay type: physicochemical; details: for Dissolved amount: added to water (1 mL), four hours at room temperature, centrifugation, absorption at 450 nm
Experimental: Changes in the solubility of the insoluble salt due to the addition of a chelating substance were measured.

[3] = Water solubility of the recovered solid (description); assay type: physicochemical; details: dried solid
[4] = Release of PQQ from the white calcium salt in solvents; assay type: physicochemical; details: for Appearance: 40° C., five hours
Experimental: After keeping each resultant mixture at 40° C. for five hours, centrifugation was performed to remove solids, and PQQ was analyzed on high performance liquid chromatography.

## O=C([O-])c1cc(C(=O)[O-])c2c(n1)C(=O)C(=O)c1cc(C(=O)O)[nH]c1-2.[Na+].[Na+] [Comparative Example 1, disodium salt of PQQ, reference compound]
[1]
  Optimum cell growth concentration: 75 µg/mL
  Cell growth retarding concentration: 150 µg/mL

## O=C(O)c1cc(C(=O)O)c2c(n1)C(=O)C(=O)c1cc(C(=O)O)[nH]c1-2 [Example 1, crystalline calcium salt of PQQ]
[1]
  Optimum cell growth concentration: 2.3 µg/mL
  Cell growth retarding concentration: 75 µg/mL
[2]
  Dissolved amount: 1%
[2]; water, no chelating substance
  solubility of the calcium salt alone: very low
[3]
  water solubility: poorly water-soluble

## crystalline calcium salt of PQQ [Example 2]
[1]
  Optimum cell growth concentration: 4.7 µg/mL
  Cell growth retarding concentration: 75 µg/mL
[2]
  Dissolved amount: 3%

## white calcium salt of PQQ [Example 15]
[4]; Acetic acid 30 mM + Ammonium acetate 70 mM (pH 5)
  Appearance: White solid
[4]; Dimethyl sulfoxide
  Appearance: Red solution
[4]; Na2HPO4 23.5 g/L NaH2PO4 5 g/L
  Appearance: Red solution
[4]; PBS (GIBCO, pH 7.4)
  Appearance: Red solid
[4]; Simulated gastric fluid (pH 1.7)
  Appearance: Red solid
[4]; neutral solution of phosphoric acid
  release of calcium ions: easily released
[4]; simulated gastric fluid
  release of calcium ions: difficult to be released

— patent publication US8969563B2, “Calcium salt of pyrroloquinoline quinone” (Mitsubishi Gas Chemical Company, Inc., priority 2010, dated 2015)
